According to patent publication US9695155B2, “Herbicidal substituted pyrimidinyloxy benzene compounds” (E. I. DU PONT DE NEMOURS AND COMPANY, priority 2013, dated 2017):

Assays:
[1] = system: corn; assay: Test A postemergence; type: in vivo, Zea mays
Outline: (§1)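 Greenhouse pot test, loam/sand soil. Formulation: non-phytotoxic solvent mix plus surfactant. Pre: directed spray onto soil after sowing. Post: plants at 1–2 leaf, 2–10 cm. Rated visually vs untreated controls at ~10 d, 0 (no effect) to 100 (complete control).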

[2] = system: sedge, umbrella; assay: Test B flooded paddy test; type: in vivo, Cyperus difformis; conditions: Flood, 250 g ai/ha; 0 to 100 scale where 0 is no effect and 100 is complete control
Experimental: (§2) Plant species in the flooded paddy test selected from rice (Oryza sativa), sedge, umbrella (small-flower umbrella sedge, Cyperus difformis), (Heteranthera limosa), and barnyardgrass (Echinochloa crus-galli) were grown to the 2-leaf stage for testing. At time of treatment, test pots were flooded to 3 cm above the soil surface, treated by application of test compounds directly to the paddy water, and then maintained at that water depth for the duration of the test. Treated plants and controls were maintained in a greenhouse for 13 to 15 days, after which time all species were compared to controls and visually evaluated. Plant response ratings, summarized in Table B, are based on a scale of 0 to 100 where 0 is no effect and 100 is complete control. A dash (-) response means no test result.

[3] = system: wheat; assay: Test A preemergence; type: in vivo, Triticum aestivum; conditions: for Plant response rating, Wheat: 125 g ai/ha, 0 to 100 scale where 0 is no effect and 100 is complete control; for Wheat plant response rating: 500 g ai/ha, 0 to 100 scale, 0 no effect, 100 complete control, approx. 10 days
Outline: as §1

[4] = system: giant foxtail; assay: Test A postemergence; type: in vivo, Setaria faberii
From the text: (§3) Seeds of plant species selected from barnyardgrass (Echinochloa crus-galli), kochia (Kochia scoparia), ragweed (common ragweed, Ambrosia elatior), Italian ryegrass (Lolium multiflorum), large (Lg) crabgrass (Digitaria sanguinalis), giant foxtail (Setaria faberii), morningglory (Ipomoea spp.), pigweed (Amaranthus retroflexus), velvetleaf (Abutilon theophrasti), wheat (Triticum aestivum), and corn (Zea mays) were planted into a blend of loam soil and sand and treated preemergence with a directed soil spray using test chemicals formulated in a non-phytotoxic solvent mixture which included a surfactant.
(§4) At the same time, plants selected from these crop and weed species and also blackgrass (Alopecurus myosuroides), and galium (catchweed bedstraw, Galium aparine) were planted in pots containing the same blend of loam soil and sand and treated with postemergence applications of test chemicals formulated in the same manner. Plants ranged in height from 2 to 10 cm and were in the one- to two-leaf stage for the postemergence treatment. Treated plants and untreated controls were maintained in a greenhouse for approximately 10 days, after which time all treated plants were compared to untreated controls and visually evaluated for injury. Plant response ratings, summarized in Table A, are based on a 0 to 100 scale where 0 is no effect and 100 is complete control. A dash (-) response means no test result.

[5] = system: wheat; assay: Test A postemergence; type: in vivo, Triticum aestivum
Outline: as §1

[6] = system: Heteranthera limosa; assay: Test B flooded paddy test; type: in vivo; conditions: Flood, 250 g ai/ha; 0 to 100 scale where 0 is no effect and 100 is complete control
Experimental: as §2

[7] = system: barnyardgrass; assay: Test A postemergence; type: in vivo, Echinochloa crus-galli
Outline: as §1

[8] = system: large (Lg) crabgrass; assay: Test A preemergence; type: in vivo, Digitaria sanguinalis; conditions: for Plant response rating, Crabgrass, Large: 125 g ai/ha, 0 to 100 scale where 0 is no effect and 100 is complete control; for Crabgrass, Large plant response rating: 500 g ai/ha, 0 to 100 scale, 0 no effect, 100 complete control, approx. 10 days
From the text: as §3, §4

[9] = system: pigweed; assay: Test A postemergence; type: in vivo, Amaranthus retroflexus
Outline: as §1

[10] = system: corn; assay: Test A preemergence; type: in vivo, Zea mays; conditions: for Plant response rating, Corn: 125 g ai/ha, 0 to 100 scale where 0 is no effect and 100 is complete control; for Corn plant response rating: 500 g ai/ha, 0 to 100 scale, 0 no effect, 100 complete control, approx. 10 days
Outline: as §1

[11] = system: rice; assay: Test B flooded paddy test; type: in vivo, Oryza sativa; conditions: Flood, 250 g ai/ha; 0 to 100 scale where 0 is no effect and 100 is complete control
Experimental: as §2

[12] = system: barnyardgrass; assay: Test B flooded paddy test; type: in vivo, Echinochloa crus-galli; conditions: Flood, 250 g ai/ha; 0 to 100 scale where 0 is no effect and 100 is complete control
Experimental: as §2

[13] = system: velvetleaf; assay: Test A postemergence; type: in vivo, Abutilon theophrasti
Outline: as §1

[14] = system: large (Lg) crabgrass; assay: Test A postemergence; type: in vivo, Digitaria sanguinalis
From the text: as §3, §4

[15] = system: pigweed; assay: Test A preemergence; type: in vivo, Amaranthus retroflexus; conditions: for Plant response rating, Pigweed: 125 g ai/ha, 0 to 100 scale where 0 is no effect and 100 is complete control; for Pigweed plant response rating: 500 g ai/ha, 0 to 100 scale, 0 no effect, 100 complete control, approx. 10 days
Outline: as §1

[16] = system: barnyardgrass; assay: Test A preemergence; type: in vivo, Echinochloa crus-galli; conditions: for Plant response rating, Barnyardgrass: 125 g ai/ha, 0 to 100 scale where 0 is no effect and 100 is complete control; for Barnyardgrass plant response rating: 500 g ai/ha, 0 to 100 scale, 0 no effect, 100 complete control, approx. 10 days
From the text: as §3, §4

[17] = system: giant foxtail; assay: Test A preemergence; type: in vivo, Setaria faberii; conditions: for Plant response rating, Foxtail, Giant: 125 g ai/ha, 0 to 100 scale where 0 is no effect and 100 is complete control; for Foxtail, Giant plant response rating: 500 g ai/ha, 0 to 100 scale, 0 no effect, 100 complete control, approx. 10 days
Outline: as §1

[18] = system: velvetleaf; assay: Test A preemergence; type: in vivo, Abutilon theophrasti; conditions: for Plant response rating, Velvetleaf: 125 g ai/ha, 0 to 100 scale where 0 is no effect and 100 is complete control; for Velvetleaf plant response rating: 500 g ai/ha, 0 to 100 scale, 0 no effect, 100 complete control, approx. 10 days
Outline: as §1

[19] = system: morningglory; assay: Test A preemergence; type: in vivo, Ipomoea spp.; conditions: for Plant response rating, Morningglory: 125 g ai/ha, 0 to 100 scale where 0 is no effect and 100 is complete control; for Morningglory plant response rating: 500 g ai/ha, 0 to 100 scale, 0 no effect, 100 complete control, approx. 10 days
Outline: as §1

[20] = 125 g ai/ha, 0 to 100 scale where 0 is no effect and 100 is complete control
[21] = 500 g ai/ha, 0 to 100 scale, 0 no effect, 100 complete control

SMILES	Plant response rating, Corn [1, 20]	Plant response rating, Corn [1, 21]	Plant response rating, Sedge, Umbrella [2]	Plant response rating, Wheat [3]	Wheat plant response rating [3]	Plant response rating, Foxtail, Giant [4, 20]	Plant response rating, Foxtail, Giant [4, 21]	Plant response rating, Wheat [5, 20]	Plant response rating, Wheat [5, 21]	Plant response rating, Ducksalad [6]	Plant response rating, Barnyardgrass [7, 20]	Plant response rating, Barnyardgrass [7, 21]	Plant response rating, Crabgrass, Large [8]	Crabgrass, Large plant response rating [8]	Plant response rating, Pigweed [9, 20]	Plant response rating, Pigweed [9, 21]	Plant response rating, Corn [10]	Corn plant response rating [10]	Plant response rating, Rice [11]	Plant response rating, Barnyardgrass [12]	other results
Cc1ccn(-c2ccccc2Oc2ncc(Cl)cn2)n1 [Compound 36]	0	0	0	0	0	0	0	0	0	0	0	0	0	70	0	20	0	0	0	0	Plant response rating, Velvetleaf [13, 20]: 20; Plant response rating, Velvetleaf [13, 21]: 70; Plant response rating, Crabgrass, Large [14, 20]: 0; Plant response rating, Crabgrass, Large [14, 21]: 10; Plant response rating, Pigweed [15]: 0; Pigweed plant response rating [15]: 20; Plant response rating, Barnyardgrass [16]: 0; Barnyardgrass plant response rating [16]: 0; Plant response rating, Foxtail, Giant [17]: 0; Foxtail, Giant plant response rating [17]: 20; Plant response rating, Velvetleaf [18]: 0; Velvetleaf plant response rating [18]: 20
Cc1nn(-c2ccccc2Oc2ncc(Cl)cn2)cc1Br [Compound 37]	0	0	0	0	0	0	0	0	0	0	0	0	10	80	0	10	0	0	0	0	Plant response rating, Morningglory [19]: 0; Morningglory plant response rating [19]: 0; Plant response rating, Velvetleaf [13, 20]: 20; Plant response rating, Velvetleaf [13, 21]: 40; Plant response rating, Crabgrass, Large [14, 20]: 0; Plant response rating, Crabgrass, Large [14, 21]: 0; Plant response rating, Pigweed [15]: 0; Pigweed plant response rating [15]: 0; Plant response rating, Barnyardgrass [16]: 0; Barnyardgrass plant response rating [16]: 10; Plant response rating, Foxtail, Giant [17]: 10; Foxtail, Giant plant response rating [17]: 30; Plant response rating, Velvetleaf [18]: 10; Velvetleaf plant response rating [18]: 10
Cc1nn(-c2ccccc2Oc2ncc(Cl)cn2)cc1Cl [Compound 38]	0	0	30	0	0	0	0	0	0	0	0	0	0	40	0	10	0	0	0	0	Plant response rating, Morningglory [19]: 0; Morningglory plant response rating [19]: 0; Plant response rating, Velvetleaf [13, 20]: 10; Plant response rating, Velvetleaf [13, 21]: 20; Plant response rating, Crabgrass, Large [14, 20]: 0; Plant response rating, Crabgrass, Large [14, 21]: 10; Plant response rating, Pigweed [15]: 0; Pigweed plant response rating [15]: 0; Plant response rating, Barnyardgrass [16]: 0; Barnyardgrass plant response rating [16]: 0; Plant response rating, Foxtail, Giant [17]: 0; Foxtail, Giant plant response rating [17]: 20; Plant response rating, Velvetleaf [18]: 0; Velvetleaf plant response rating [18]: 10
Cc1nn(-c2ccccc2Oc2ncc(Cl)cn2)cc1Cl [Compound 39]	0	10	30	0	0	0	0	0	0	50	0	0	10	90	10	40	0	0	0	0	Plant response rating, Morningglory [19]: 0; Morningglory plant response rating [19]: 0; Plant response rating, Velvetleaf [13, 20]: 20; Plant response rating, Velvetleaf [13, 21]: 30; Plant response rating, Crabgrass, Large [14, 20]: 0; Plant response rating, Crabgrass, Large [14, 21]: 10; Plant response rating, Pigweed [15]: 0; Pigweed plant response rating [15]: 0; Plant response rating, Barnyardgrass [16]: 0; Barnyardgrass plant response rating [16]: 10; Plant response rating, Foxtail, Giant [17]: 10; Foxtail, Giant plant response rating [17]: 50; Plant response rating, Velvetleaf [18]: 10; Velvetleaf plant response rating [18]: 20
